What was measured:
Trypanosoma cruzi [1] = test: GSK_TCAKS: pIC50 Trypanosoma cruzi viability assay using beta-GAL activity. This assay was run at single shot at 5uM compound concentration per well. The biological reagents consisted of NIH-3T3 host cells and trypomastigotes parasitic cells; both cell types were set to a 3.3 * 10^5 cells/mL dilution in assay DMEM by means of a CASY cell counter device using a 60um capillary. 6 uL of the mixture were dispensed per well (about 1 * 10^3 host-cells and 1 * 10^3 parasites) with a Multidrop Combi dispenser. […] In all wells, the percentage of DMSO never exceeded 0.5%. Plates incubated for four days at 37C, 5% CO2. The substrate used for the assay fluorescence intensity (FLINT) readout was resorufin-beta-D-galactopiranoside (Sigma-Aldrich) at 5uM per well. It was diluted in PBS supplemented with the soft detergent Igepal (Fluka).; assay type: functional, organism-based, Mus musculus; conditions: Tulahuen, NIH3T3
Trypanosoma cruzi [2] = test: (§1) GSK_TCAKS: pIC50 Trypanosoma cruzi Imaging: Infected Cells. […] Cells were then washed once with PBS before infection. T. cruzi trypomastigotes, collected at days 5 to 8 after infection from LLC-MK2 parasite infected cultures, were allowed to swim out for 4h at 37C from a centrifuged pellet (2,500 rpm/10 min/room temperature). Trypomastigotes were then collected and counted in a CASY Cell Counter. Trypomastigotes, in supplemented DMEM, were added to H9c2 cultures in a multiplicity of infection of 1 and incubated for 18 h. Cells were washed once with PBS before incubation of the infected H9c2 monolayer with trypsin (Life-Technologies) to detach cells from the flask. Cells were counted in a CASY Cell Counter using a 150 um capillary and their density set at 5 * 10^4 cells per mL in supplemented assay DMEM. Infected H9c2 were dispensed into 384-well poly-lysine coated assay plates at 50uL per well using a Multidrop Combi dispenser. After seeding them, the plates were incubated at 37C, 5% CO2 for 72h. Cultures were then fixed and stained by addition of 50 uL of a solution containing 8% formaldehyde and 4 uM DRAQ5 DNA dye (BioStatus, UK) per well. […] Five images were collected per well for reliable statistical analysis. Automated image analysis was performed with a script developed on Acapella High Content Imaging and Analysis Software (PerkinElmer). Output: percentage of infected cells per well as a second infection marker.; assay type: functional, organism-based, Rattus norvegicus; conditions: H9c2, 4 h
Trypanosoma cruzi [3] = test: GSK_TCAKS: pIC50 Trypanosoma cruzi Imaging: Amastigotes/Cell. […] Cells were then washed once with PBS before infection. T. cruzi trypomastigotes, collected at days 5 to 8 after infection from LLC-MK2 parasite infected cultures, were allowed to swim out for 4h at 37C from a centrifuged pellet (2,500 rpm/10 min/room temperature). Trypomastigotes were then collected and counted in a CASY Cell Counter. Trypomastigotes, in supplemented DMEM, were added to H9c2 cultures in a multiplicity of infection of 1 and incubated for 18 h. Cells were washed once with PBS before incubation of the infected H9c2 monolayer with trypsin (Life-Technologies) to detach cells from the flask. Cells were counted in a CASY Cell Counter using a 150 um capillary and their density set at 5 * 10^4 cells per mL in supplemented assay DMEM. Infected H9c2 were dispensed into 384-well poly-lysine coated assay plates at 50uL per well using a Multidrop Combi dispenser. After seeding them, the plates were incubated at 37C, 5% CO2 for 72h. Cultures were then fixed and stained by addition of 50 uL of a solution containing 8% formaldehyde and 4 uM DRAQ5 DNA dye (BioStatus, UK) per well. […] Five images were collected per well for reliable statistical analysis. Automated image analysis was performed with a script developed on Acapella High Content Imaging and Analysis Software (PerkinElmer). Output: number of amastigotes per cell as infection level measurement.; assay type: functional, organism-based, Rattus norvegicus; conditions: H9c2, 4 h
Trypanosoma cruzi [4] = test: as §1, with “H2C9” for “Trypanosoma cruzi”, “H9c2 Host Cardiomyocytes.” for “Infected Cells.”, “Number” for “percentage”, “H9c2 Host Cardiomyocytes nuclei to determine drug-related cytotoxicity.” for “infected cells per well as a second infection marker.”; assay type: functional, organism-based, Rattus norvegicus; conditions: H9c2, 4 h
Leishmania donovani [5] = test: GSK_TCAKS: pIC50 Leishmania donovani viability assay using fluorescence intensity. Assay plates (1536-well) were prepared by adding 30nL per well of compound. For single shot assay, the final compound concentration was 5uM. […] Briefly, eGFP LdBOB axenic amastigotes were harvested, fixed and counted in a CASY cell counter (Roche-Applied Science). A final concentration of 1.5 * 10^5 cells per well were prepared in amastigote media containing 500 U/mL penicillin/streptomycin (Invitrogen) and 6uL was dispensed to each experimental well using a Multidrop Combi dispenser (Thermo Scientific). 6uL of assay media was dispensed to control columns used as reference for 100% compound response. Following incubation for 72 h at 37C, 5% CO2, 2 uL of resazurin was added to each well at a final concentration of 0.5 mM in phosphate buffered saline (PBS) with IGEPAL (Sigma-Aldrich), 0.05% (v/v).; assay type: functional, organism-based
Leishmania donovani [6] = test: (§2) GSK_TCAKS: pIC50 Leishmania donovani Imaging: Infected Macrophages. Assay plates (384-well) were prepared by adding 250nL of compound to each well. For single shot assay, the final compound concentration was 5 uM. […] Automated image analysis was performed with a script developed on Acapella High Content Imaging and Analysis Software (PerkinElmer). Output: Percent of infected macrophage cells were reported for each well.; assay type: functional, organism-based, Homo sapiens; conditions: THP-1
Leishmania donovani [7] = test: as §2, with “Amastigotes/Macrophages.” for “Infected Macrophages.”, “Average number” for “Percent”, “amastigotes per” for “infected”, “cell” for “cells”; assay type: functional, organism-based, Homo sapiens; conditions: THP-1
Leishmania donovani [8] = test: as §2, with “THP-1 Host” for “Infected”, “THP-1 cell count” for “Percent of infected macrophage cells”; assay type: functional, organism-based, Homo sapiens
[9] = tested on: Trypanosoma brucei brucei; test: GSK_TCAKS: pIC50 Trypanosoma brucei viability assay using fluorescence intensity. Assay plates (1536-well) were prepared by dispensing 25nL of compound solution per well using an Echo acoustic dispenser (Labcyte).; assay type: functional, organism-based; conditions: Lister 427, 2 h
[10] = tested on: Trypanosoma brucei brucei; test: GSK_TCAKS: pIC50 Trypanosoma brucei viability assay using luminiscence. Assay plates (1536-well) were prepared. T. brucei cultures were harvested and counted in a CASY cell counter. A parasite suspension was prepared at a final concentration of 5 * 10^4 cells/mL in complete HMI9 medium and 6uL was dispensed to all wells containing compounds using a Multidrop Combi dispenser. 6uL of HMI9 media with 0.4% DMSO were dispensed to control columns. Plates were incubated for 24 h at 37C, 5% CO2 then tempered for 10 min at room temperature. ATP content was quantified by adding 4 uL of CellTiter-Glo Reagent (Promega) according to the manufacturer's instructions. Luminescence was measured using a ViewLux.; assay type: functional, organism-based; conditions: Lister 427, CASY
[11] = GSK_TCAKS: pIC50 HepG2 human cell line viability assay using luminiscence. […] Seeding density was checked to ensure that new mono-layers were not more than 50% confluent at the time of harvesting. Cell suspension was added to 500 mL of the same medium at a final density of 1.2 * 10^5 cells/mL. This cell suspension was dispensed (25 uL, 3000 cells per well) into 384-well clear-bottom plates using a Multidrop Combi dispenser. Prior to addition of the cell suspension, the screening compounds (250 nL) were pre-dispensed into the plates with an Echo liquid handler. Plates were incubated for 48 h at 37C, 5% CO2. After incubation, plates equilibrated at room temperature for 30 min before proceeding to develop the luminescent signal. The signal developer, CellTiter-Glo Reagent, was allowed to equilibrate at room temperature for 30 min and added to the plates (25uL per well) using a Multidrop Combi dispenser. Plates were left for 10 min at room temperature for stabilization and then read using a ViewLux.; assay type: toxicity, cell-based
[12] = target: Sterol 14-alpha demethylase (Trypanosoma cruzi (strain CL Brener), UniProt Q7Z1V1); test: GSK_TCAKS: pIC50 CYP51 from Trypanosoma cruzi.; assay type: functional
Chain of Sterol 14-alpha demethylase (Q7Z1V1 whole entry): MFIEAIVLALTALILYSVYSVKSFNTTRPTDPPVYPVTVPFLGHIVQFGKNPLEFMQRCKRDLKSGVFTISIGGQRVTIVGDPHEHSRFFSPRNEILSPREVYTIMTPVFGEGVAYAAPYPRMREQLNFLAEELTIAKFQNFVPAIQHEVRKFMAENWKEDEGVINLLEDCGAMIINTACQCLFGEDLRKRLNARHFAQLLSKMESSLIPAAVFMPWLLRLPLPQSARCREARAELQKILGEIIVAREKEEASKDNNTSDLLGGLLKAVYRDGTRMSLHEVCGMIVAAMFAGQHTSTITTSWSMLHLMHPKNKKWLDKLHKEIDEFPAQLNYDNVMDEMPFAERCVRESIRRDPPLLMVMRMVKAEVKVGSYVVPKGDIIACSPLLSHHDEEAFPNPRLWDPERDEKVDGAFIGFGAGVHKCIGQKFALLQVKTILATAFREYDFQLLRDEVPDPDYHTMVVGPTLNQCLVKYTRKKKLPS

## O=C(CSc1nnc2ccc(-c3ccc(F)cc3)nn12)N1CCCCC1
Trypanosoma cruzi [1]
  IC50: 2.51 µM
Trypanosoma cruzi [2]
  IC50: 2 µM
Trypanosoma cruzi [3]
  IC50: 1 µM
Trypanosoma cruzi [4]
  IC50: > 50.1 µM
Leishmania donovani [5]
  IC50: > 50.1 µM
Leishmania donovani [6]
  IC50: > 50.1 µM
Leishmania donovani [7]
  IC50: > 50.1 µM
Leishmania donovani [8]
  IC50: 6.31 µM
[9]
  IC50: 0.398 µM
[10]
  IC50: 0.501 µM
[11]
  IC50 at 48 h: > 100 µM
[12]
  IC50: > 100 µM

## CC(C)(C)CC(=O)NCCc1csc(-c2ccc(F)cc2)n1
Trypanosoma cruzi [1]
  IC50: 1.26 µM
Trypanosoma cruzi [2]
  IC50: 1 µM
Trypanosoma cruzi [3]
  IC50: 0.794 µM
Trypanosoma cruzi [4]
  IC50: > 50.1 µM
Leishmania donovani [5]
  IC50: > 50.1 µM
Leishmania donovani [6]
  IC50: 31.6 µM
Leishmania donovani [7]
  IC50: 15.8 µM
Leishmania donovani [8]
  IC50: 15.8 µM
[9]
  IC50: 0.631 µM
[10]
  IC50: 0.501 µM
[11]
  IC50 at 48 h: > 100 µM
[12]
  IC50: 20 µM

## O=C(NC(CO)c1ccc(F)cc1)c1ccc(-c2c[nH]c3ncccc23)s1 (stereo not drawn)
Trypanosoma cruzi [1]
  IC50: 10 µM
Trypanosoma cruzi [2]
  IC50: 15.8 µM
Trypanosoma cruzi [3]
  IC50: 12.6 µM
Trypanosoma cruzi [4]
  IC50: 3.98 µM
Leishmania donovani [5]
  IC50: 31.6 µM
Leishmania donovani [6]
  IC50: 25.1 µM
Leishmania donovani [7]
  IC50: 20 µM
Leishmania donovani [8]
  IC50: 10 µM
[9]
  IC50: 0.251 µM
[10]
  IC50: 0.794 µM
[11]
  IC50 at 48 h: 39.8 µM
[12]
  IC50: 1.26 µM

## Nc1nc(-c2ccccc2)cc(-c2nc3cccnc3[nH]2)n1
Trypanosoma cruzi [1]
  IC50: 3.16 µM
Trypanosoma cruzi [2]
  IC50: 2 µM
Trypanosoma cruzi [3]
  IC50: 1.58 µM
Trypanosoma cruzi [4]
  IC50: 12.6 µM
Leishmania donovani [5]
  IC50: 3.98 µM
Leishmania donovani [6]
  IC50: 2.51 µM
Leishmania donovani [7]
  IC50: 2.51 µM
Leishmania donovani [8]
  IC50: > 50.1 µM
[9]
  IC50: 10 µM
[10]
  IC50: 15.8 µM
[11]
  IC50 at 48 h: 39.8 µM
[12]
  IC50: > 100 µM

## CN(C)S(=O)(=O)c1cccc(CSc2nnc(-c3ccc4c(c3)OCO4)o2)c1
Trypanosoma cruzi [1]
  IC50: 0.501 µM
Trypanosoma cruzi [2]
  IC50: 0.1 µM
Trypanosoma cruzi [3]
  IC50: 0.0501 µM
Trypanosoma cruzi [4]
  IC50: > 50.1 µM
Leishmania donovani [5]
  IC50: 1 µM
Leishmania donovani [6]
  IC50: 2 µM
Leishmania donovani [7]
  IC50: 0.631 µM
Leishmania donovani [8]
  IC50: > 50.1 µM
[9]
  IC50: 31.6 µM
[10]
  IC50: > 39.8 µM
[11]
  IC50 at 48 h: > 100 µM
[12]
  IC50: 12.6 µM

## N#CN1CC[C@@H](NC(=O)Nc2ccccc2Oc2ccccc2)C1
Trypanosoma cruzi [1]
  IC50: 5.01 µM
Trypanosoma cruzi [2]
  IC50: 3.98 µM
Trypanosoma cruzi [3]
  IC50: 5.01 µM
Trypanosoma cruzi [4]
  IC50: 20 µM
Leishmania donovani [5]
  IC50: 3.16 µM
Leishmania donovani [6]
  IC50: 5.01 µM
Leishmania donovani [7]
  IC50: 3.98 µM
Leishmania donovani [8]
  IC50: 25.1 µM
[9]
  IC50: 1 µM
[10]
  IC50: 7.94 µM
[11]
  IC50 at 48 h: 39.8 µM
[12]
  IC50: > 100 µM

## CCc1ccc2nc(NC(=O)c3cc(N4CCOCC4)ccn3)sc2c1
Trypanosoma cruzi [1]
  IC50: 2.51 µM
Trypanosoma cruzi [2]
  IC50: 0.794 µM
Trypanosoma cruzi [3]
  IC50: 0.501 µM
Trypanosoma cruzi [4]
  IC50: 39.8 µM
Leishmania donovani [5]
  IC50: 2 µM
Leishmania donovani [6]
  IC50: 1.26 µM
Leishmania donovani [7]
  IC50: 0.794 µM
Leishmania donovani [8]
  IC50: 10 µM
[9]
  IC50: 0.501 µM
[10]
  IC50: 1 µM
[11]
  IC50 at 48 h: > 100 µM
[12]
  IC50: > 100 µM

## Nc1nonc1-c1nc2cncc(C(=O)N3CC[C@H](N)C3)c2n1CC1CC1
Trypanosoma cruzi [1]
  IC50: > 50.1 µM
Trypanosoma cruzi [2]
  IC50: > 50.1 µM
Trypanosoma cruzi [3]
  IC50: 12.6 µM
Trypanosoma cruzi [4]
  IC50: > 50.1 µM
Leishmania donovani [5]
  IC50: > 50.1 µM
Leishmania donovani [6]
  IC50: 20 µM
Leishmania donovani [7]
  IC50: 39.8 µM
Leishmania donovani [8]
  IC50: 12.6 µM
[9]
  IC50: 0.631 µM
[10]
  IC50: 0.794 µM
[11]
  IC50 at 48 h: > 100 µM
[12]
  IC50: 12.6 µM

## Cn1ccnc1CN1CCc2[nH]cnc2C1c1ccccc1OCc1ccccc1 (stereo not drawn)
Trypanosoma cruzi [1]
  IC50: 39.8 µM
Trypanosoma cruzi [2]
  IC50: > 50.1 µM
Trypanosoma cruzi [3]
  IC50: > 50.1 µM
Trypanosoma cruzi [4]
  IC50: > 50.1 µM
Leishmania donovani [5]
  IC50: > 50.1 µM
Leishmania donovani [6]
  IC50: > 50.1 µM
Leishmania donovani [7]
  IC50: > 50.1 µM
Leishmania donovani [8]
  IC50: > 50.1 µM
[9]
  IC50: 0.398 µM
[10]
  IC50: 0.501 µM
[11]
  IC50 at 48 h: > 100 µM
[12]
  IC50: 7.94 µM

From ChEMBL document CHEMBL3430912, “GSK Tres Cantos Anti-Kinetoplastid Screening (TCAKS) Data”
